Consider one compound from BindingDB's records for patent US20240327385 (2024).

The target of this assay is T1, Renin (Homo sapiens, UniProt P00797).
T1 sequence (P00797 whole entry): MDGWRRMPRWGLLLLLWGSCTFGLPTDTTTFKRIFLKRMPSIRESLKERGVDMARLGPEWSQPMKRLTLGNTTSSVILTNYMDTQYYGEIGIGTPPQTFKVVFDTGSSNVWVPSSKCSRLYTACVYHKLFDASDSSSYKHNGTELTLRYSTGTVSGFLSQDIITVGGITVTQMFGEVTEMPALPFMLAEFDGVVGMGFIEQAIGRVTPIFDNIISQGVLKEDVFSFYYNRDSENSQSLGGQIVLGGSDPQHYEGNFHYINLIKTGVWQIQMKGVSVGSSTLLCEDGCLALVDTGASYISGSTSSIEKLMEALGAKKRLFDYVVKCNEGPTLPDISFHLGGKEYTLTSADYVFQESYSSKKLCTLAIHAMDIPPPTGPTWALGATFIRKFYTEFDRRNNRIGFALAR
Nature of the assay: Inhibitory Effects on Human Renin Activity Assay. How it is done:
Briefly, human recombinant renin (from the kit) was incubated with the compound of the disclosure or buffer for 30 min at 37° C. before substrate addition. Fluorescence intensity was measured at 530 nm after an incubation of 15 min at 37° C. Data was analyzed by Prism and fitted into a sigmodal curve for IC50 calculation.

Structures are written as SMILES.

A word on the IC50: it is the point on the concentration scale where inhibition reaches its midpoint. Low values mean greater potency in that assay, high ones weaker potency in that assay. Take `CO[C@H]1C[C@H](Nc2cc(C3CC3)cnc2C(=O)N(CC(C)C)C2CNCC(C(=O)N3CCOC(C)(C)C3)C2)C1` (stereo partly specified) [US20240327385, Example 8]: 1.6 nM corresponded to half-maximal inhibition (IC50).
